In series [1] the test system is various human cancer cell lines. As to the kind of experiment: Cancer cell growth inhibition (WST-1), all cell lines together. The series is classed as cell-based. As for the experimental part:
To investigate whether or not the geranyl flavonoid derivative of the present invention had cancer cell growth inhibiting effect, various human cancer cell lines were treated with CG-901-2 and then cancer cell growth was observed. Particularly, the human breast cancer cell lines MDA-MB-231 and MDA-MB-468, the prostate cancer cell line DU-145, the colorectal cancer cell line HCT116, the pancreatic cancer cell line AsPC-3, or the colon cancer cell line SW620 was distributed in 10% FBS medium, followed by culture in a 37° C. 5% CO2 incubator. The attached grown cells were collected by using trypsin-EDTA. The obtained cells were counted by hematocytometer, which were distributed in 96-well plate at the density of 5,000 cells/well (MDA-MB-231, MDA-MB-468, and DU-145) or at the density of 7,000 cells/well (HCT116 and SW620). 10% FBS medium was added to the plate, followed by culture in a 37° C. 5% CO2 incubator. 24 hours later, the cells were treated with the compound CG-901-2 prepared in Example <1-2> dissolved in DMSO at the concentration of 20 or 50 μg/ml. The negative control was treated with 0.1% DMSO. The cells were further cultured for 24 more hours. […] Then, OD450 was measured with ELISA reader (Bio-Rad) to investigate the time-dependent cancer cell growth rate. […]

Another series concerns DU-145 tumor. The experiment in a line: In vivo tumor growth inhibition in prostate cancer mouse model. As to conditions: 50 mg/kg oral, once a day, 10 times, compared with negative control. The method, then: Particularly, the human originated prostate cancer cell line DU-145 was inoculated in the serum-free medium, followed by culture in a 37° C. 5% CO2 incubator. The cultured DU-145 cells were prepared at the density of 3×10^7 cells/ml. Each BALB/c specific pathogen free female mouse (Nara Biotech Co.) at 6 weeks was administered with the cells at the dose of 9×10^6 cells/0.3 ml via subcutaneous injection in the auxiliary region between the right shoulder and breast wall, leading to the cancer cell transplantation. After the transplantation, the mouse was raised for 25 days until the generated tumor induced by the transplanted cancer cells grew to a measurable size. As a result, the prostate cancer mouse model was constructed. The tumor induced by the transplanted cancer cells was measured in three dimensions which were length, width, and height of the tumor, by using a vernier caliper, […], and the size of the tumor was calculated by the below mathematical formula 1. […] The tumor size was measured on day 0, day 10, day 14, day 16, day 18, day 21, day 23, and day 25. […] The size and weight of the control tumor was measured and compared with the above.

Another series relates to Mcl-1. As to the kind of experiment: Western blotting of STAT3 target protein expression in DU-145 cells. It is filed as cell-based, human. As to conditions: DU-145, 20 μM. As for the experimental part:
(§1) To investigate the changes of the expression of STAT3 target genes according to the decrease of STAT3 protein phosphorylation caused by the treatment of geranyl flavonoid derivative CG901-2, the expressions of cyclin A that is well known as a STAT3 target protein, Mcl-1 (Induced myeloid leukemia cell differentiation protein-1), and survivin were examined. Particularly, DU-145 cells were treated with the compound CG-901-2 at the concentration of 20 μM by the same manner as described in Example <2-1>, followed by culture. Western blotting was performed to investigate the expressions of AD (cyclin A), Mcl-1, and survivin. β-actin was used as the control to compare the expression levels.
(A western blot detects proteins with antibodies after separation by electrophoresis.)

A further series has as its system cyclin A. The series is described as above. It is filed as cell-based, human. As to conditions: DU-145, 20 μM. The method, then:
as §1

In the next series the test system is survivin. The series is described as above. The series is classed as cell-based, human. As to conditions: DU-145, 20 μM. The method, then: as §1
Series [2] in a line: Physicochemical properties: solubility. To be noted: for Solubility: Insolubility: solvents in which insoluble; for Solubility: Fusibility: solvents in which soluble.
The next series deals with T1, STAT3 (Homo sapiens, UniProt P40763).
T1 construct: the prostate cancer cell line DU-145 was distributed in three 60-mm plates; endogenous in cells; host or cells: DU-145 prostate cancer cells
T1 sequence (P40763 whole entry): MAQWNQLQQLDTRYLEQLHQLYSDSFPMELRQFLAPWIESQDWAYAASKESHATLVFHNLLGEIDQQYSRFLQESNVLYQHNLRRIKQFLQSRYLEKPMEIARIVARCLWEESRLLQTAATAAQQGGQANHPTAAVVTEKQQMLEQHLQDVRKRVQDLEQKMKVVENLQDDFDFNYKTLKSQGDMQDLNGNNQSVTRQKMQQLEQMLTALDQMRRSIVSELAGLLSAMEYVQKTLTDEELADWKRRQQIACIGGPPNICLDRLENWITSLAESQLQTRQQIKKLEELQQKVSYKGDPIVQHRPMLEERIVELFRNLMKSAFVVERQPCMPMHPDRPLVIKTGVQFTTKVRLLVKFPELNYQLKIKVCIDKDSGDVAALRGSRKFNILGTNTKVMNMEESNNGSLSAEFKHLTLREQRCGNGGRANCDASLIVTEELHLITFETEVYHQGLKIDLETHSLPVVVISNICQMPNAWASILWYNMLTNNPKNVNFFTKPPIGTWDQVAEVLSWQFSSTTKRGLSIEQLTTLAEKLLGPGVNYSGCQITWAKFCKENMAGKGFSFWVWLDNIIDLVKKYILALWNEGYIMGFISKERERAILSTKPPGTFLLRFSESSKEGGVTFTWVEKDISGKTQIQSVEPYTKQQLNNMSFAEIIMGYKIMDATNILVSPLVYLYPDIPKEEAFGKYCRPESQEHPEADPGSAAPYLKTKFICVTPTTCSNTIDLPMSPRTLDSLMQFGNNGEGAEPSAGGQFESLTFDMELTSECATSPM
As to the kind of experiment: Western blotting of STAT3 expression and phosphorylation in DU-145 cells. The series is classed as cell-based. To be noted: DU-145, 5, 10 or 20 μM, 24 hours. The method, then:
To investigate whether or not the novel synthesized geranyl flavonoid derivative of the present invention, CG-901-2, had the activity of inhibiting STAT3 protein activity by inhibiting STAT3 phosphorylation, Western blotting was performed to measure the expression of the phosphorylated STAT3. Particularly, the prostate cancer cell line DU-145 was distributed in three 60-mm plates containing 10% FBS (fetal bovine serum) medium at the density of 80,000 cells/plate, followed by culture in a 37° C. 5% CO2 incubator for 24 hours. Upon completion of the culture, the CG-901-2 compound prepared in Example <1-2> was treated to each plate at the concentration of 5, 10, or 20 μM. The negative control was treated with 0.25% DMSO, followed by culture for 24 hours. Then, the medium was discarded from each plate. The plate was then washed with PBS, to which 200 μl of Ripa lysis buffer was added. The cells attached on the plate were collected by using a scraper. […] The lysate mixture was placed in a 96-well plate, and […] was measured using ELISA reader in order to quantify the protein. After the quantification, the lysate containing the equal amount of protein was prepared, which was mixed with lysis buffer and 5× dye, leading to the preparation of a loading sample. […]

Another series deals with SW620. As to the kind of experiment: Cancer cell growth inhibition (WST-1). It is filed as cell-based. To be noted: Homo sapiens, SW-620; Colon cancer, 24 hours. The method, then: (§2) To investigate whether or not the geranyl flavonoid derivative of the present invention had cancer cell growth inhibiting effect, various human cancer cell lines were treated with CG-901-2 and then cancer cell growth was observed. Particularly, the human breast cancer cell lines MDA-MB-231 and MDA-MB-468, the prostate cancer cell line DU-145, the colorectal cancer cell line HCT116, the pancreatic cancer cell line AsPC-3, or the colon cancer cell line SW620 was distributed in 10% FBS medium, followed by culture in a 37° C. 5% CO2 incubator. The attached grown cells were collected by using trypsin-EDTA. The obtained cells were counted by hematocytometer, which were distributed in 96-well plate at the density of 5,000 cells/well (MDA-MB-231, MDA-MB-468, and DU-145) or at the density of 7,000 cells/well (HCT116 and SW620). 10% FBS medium was added to the plate, followed by culture in a 37° C. 5% CO2 incubator. 24 hours later, the cells were treated with the compound CG-901-2 prepared in Example <1-2> dissolved in DMSO at the concentration of 20 or 50 μg/ml. The negative control was treated with 0.1% DMSO. The cells were further cultured for 24 more hours. Then, 10 μl of the coloring agent, 2-[4-iodophenyl]-3-[4-nitrophenyl]-5-[2,4-disulfophenyl]-2H-tetrazolium (monosodium salt, WST-1; Roche) was treated to the cultured cells, followed by culture for 2 hours. Then, OD450 was measured with ELISA reader (Bio-Rad) to investigate the time-dependent cancer cell growth rate. For 24 hours from the treatment of the compound, the concentration of the compound that allowed only 50% of cancer cell population to survive was calculated based on the above growth rate, and the result was defined as GI50.
In general terms: Formazan colour is commonly taken as a measure of viable cells.

The subject of another series is MDA-MB-468. As to the kind of experiment: Cancer cell growth inhibition (WST-1). It is filed as cell-based. To be noted: Homo sapiens, Breast cancer, 24 hours. As for the experimental part: as §2
Series [3] is described as follows: Cancer cell growth inhibition (WST-1). The series is classed as cell-based. As to conditions: Homo sapiens; Prostate cancer, 24 hours. As for the experimental part: as §2
The next series deals with HCT116. The experiment in a line: Cancer cell growth inhibition (WST-1). The series is classed as cell-based. As to conditions: Homo sapiens, HCT-116; Colorectal cancer, 24 hours. The method, then: as §2

Experimental findings from US9580399B2, “Geranyl flavonoid derivative with improved water solubility, a method for preparing the same, and a method for treating cancer using the same” (KOREA RESEARCH INSTITUTE OF BIOSCIENCE AND BIOTECHNOLOGY, priority 2014, dated 2017) are described below.

≈ marks a conversion by molar mass, not a printed value.

`CC(C)=CCC[C@]1(C)C=Cc2c(CCC(=O)c3ccc(OCCN(C)C)cc3O)ccc(O)c2O1.Cl` [CG-901-2, (R)-2-(3-hydroxy-4-(3-(8-hydroxy-2-methyl-2-(4-methylpent-3-enyl)-2H-chromen-5-yl)propanoyl)phenoxy)-N,N-dimethylethanaminium chloride]: the GI50 is 15 to 30 µM in [1] (Homo sapiens, MDA-MB-231, MDA-MB-468, DU-145, HCT116, AsPC-3, SW620, read-out: GI50 concentration range of each cancer cell line); 50 µM in the series on SW620; 30 µM in the series with MDA-MB-468; 20 µM in series [3]; 25 µM with HCT116. Moreover, in series [1] (compared with negative control), the “cancer cell growth rate” value was “reduced over the time”. In addition, the “tumor size growth inhibited” value in the series with DU-145 tumor is on record as “approximately 38.8%”. The “weight of the tumor reduced” value in the series on DU-145 tumor (day 25) is 40.5%. The “expression of Mcl-1” value in the series with Mcl-1 is “down-regulated”. Moreover, the “expression of cyclin A” value with cyclin A is reported as “down-regulated”. In the series with survivin, the expression of survivin entry is reported as “down-regulated”. For the same compound, the “Solubility: Insolubility” value in series [2] is “Hexane, Ethylacetate”. In addition, in series [2], the “Solubility: Fusibility” value is “Alcohol, H2O”. Moreover, on STAT3, the “expression of STAT3” value is reported as “not changed”. Also, the “phosphorylation of STAT3” value at STAT3 was “reduced CG-901-2 dose-dependently”.

For `CC(C)=CCC[C@]1(C)C=Cc2c(CCC(=O)c3ccc(OCCN(C)C)cc3O)ccc(O)c2O1` [CG-901-1, (R)-1-(4-(2-(dimethylamino)ethoxy)-2-hydroxyphenyl)-3-(8-hydroxy-2-methyl-2-(4-methylpent-3-enyl)-2H-chromen-5-yl)propan-1-one], in [2], the “Solubility: Insolubility” value is on record as “Hexane” and the “Solubility: Fusibility” value is given as “Alcohol, DMSO”. Moreover, the solubility (in general, the dissolved amount per volume that the medium holds) in series [2] (water) came out at 300 µM (≈ 144 µg/mL).
